Measured values from patent US7365080B2, “Pharmaceutical compositions comprising thieno[2,3-c]pyridine derivatives and use thereof” (Rimonyx Pharmaceuticals Ltd., priority 2003, dated 2008).

Tests used:
[1] = system: Human T-lymphocytes on human endothelial cells; experiment: T-lymphocyte rolling on endothelial cells under shear flow; type: cell-based; details: for inhibition at 25 µM: Homo sapiens, high shear flow, read-out: inhibition of cell rolling; for % rolling: test compound (25 μM), shear flow
Method: Human T-lymphocytes were passed over a layer of human endothelial cells according to the method of Lawrence and Springer (Cell 65: 859-873, 1991). At high shear flow, migrating T-lymphocytes adhered transiently and intermittently to the endothelial cells as a consequence of HS-GAG-ECAM interaction. The resulting T-cell rolling was recorded by video camera and the number of rolling cells per defined area during a constant period of time was determined. Soluble heparin (competitor of cell surface GAGs) abolished T-cell rolling under high shear flow conditions. Compounds no. 1, 11 and 25, each at 25 μM, inhibited cell rolling by 90, 90 and 70%, respectively.

[2] = system: MCF7 (Breast carcinoma); experiment: Inhibition of growth of cancer cell lines (alamar blue); type: cell-based; details: Homo sapiens, 48 hours
Method: (§1) Each cell line (MCF7 (Breast carcinoma), NCI-H460 (Non-small cell lung carcinoma), and SF-268 (glioma) was pre-incubated on a microtiter plate. Inhibitor compounds were then added at a concentration of 0.1 μM and the culture incubated for 48 hours. End-point determinations were made with alamar blue (Gray G D, Wickstrom E, Biotechniques 21(5) 780-782, 1996). Results for each compound are presented as the percent of growth of the treated cells as compared to the untreated cells. Compounds, which reduce the growth of any one of the cell lines to approximately 32% or less were considered suitable for further and more extensive study (Monks A et al, J. Natl. Cancer Inst., 83:757-766, 1991. Compound no. 1 inhibited the growth of the cell lines MCF7, NCI-H460, and SF-268 by 99%, 100% and 99%, respectively.

[3] = system: SF-268 (glioma); experiment: as above; type: cell-based; details: Homo sapiens, 48 hours
Method: as §1

[4] = system: NCI-H460 (Non-small cell lung carcinoma); experiment: as above; type: cell-based; details: Homo sapiens, 48 hours
Method: as §1

[5] = system: CCR-CEM (Human T Cell leukemia); experiment: Inhibition of leukemia cell growth (SRB); type: cell-based; details: 10^−8-10^−4 Molar, 48 hours
Method: (§2) Each cell line (RPMI-8226 (Multiple Myeloma), MOLT-4 (Acute lymphoblastic leukemia), CCR-CEM (Human T Cell leukemia), K562 (Chronic myeloid leukemia), SR (Chronic myeloid leukemia) was pre-incubated on a microtiter plate (Monks A et al, J. Natl. Cancer Inst., 83:757-766, 1991). Inhibitor compounds were then added at different concentrations (10^−8-10^−4 Molar) and the culture incubated for 48 hours. A sulforhodamine B (SRB) protein assay was used to estimate cell viability or growth (Skehan P et al, J. Natl. Cancer Inst., 82:1107-1112, 1990). Compound no. 1 inhibited the growth of the cell lines RPMI-8226, MOLT4, CCR-CEM, K562 and SR to 100%, 100%, 100%, 100% and 93%, respectively. There was negligible cell death (less than 15%).

[6] = system: RPMI-8226 (Multiple Myeloma); experiment: Inhibition of leukemia cell growth (SRB); type: cell-based; details: 10^−8-10^−4 Molar, 48 hours
Method: as §2

[7] = system: MOLT-4 (Acute lymphoblastic leukemia); experiment: Inhibition of leukemia cell growth (SRB); type: cell-based; details: MOLT4; 10^−8-10^−4 Molar, 48 hours
Method: as §2

[8] = system: K562 (Chronic myeloid leukemia); experiment: Inhibition of leukemia cell growth (SRB); type: cell-based; details: 10^−8-10^−4 Molar, 48 hours
Method: as §2

[9] = system: SR (Chronic myeloid leukemia); experiment: Inhibition of leukemia cell growth (SRB); type: cell-based; details: 10^−8-10^−4 Molar, 48 hours
Method: as §2

[10] = target: T1, L-Selectin (Homo sapiens, UniProt P14151); experiment: ELISA: inhibition of L-selectin/IgG binding to immobilized heparin (Heparin-BSA); details: L-Selectin binding to heparin
T1 construct: purchased Research and Development Systems 728-LS
T1 sequence (P14151 39-332 limits assumed): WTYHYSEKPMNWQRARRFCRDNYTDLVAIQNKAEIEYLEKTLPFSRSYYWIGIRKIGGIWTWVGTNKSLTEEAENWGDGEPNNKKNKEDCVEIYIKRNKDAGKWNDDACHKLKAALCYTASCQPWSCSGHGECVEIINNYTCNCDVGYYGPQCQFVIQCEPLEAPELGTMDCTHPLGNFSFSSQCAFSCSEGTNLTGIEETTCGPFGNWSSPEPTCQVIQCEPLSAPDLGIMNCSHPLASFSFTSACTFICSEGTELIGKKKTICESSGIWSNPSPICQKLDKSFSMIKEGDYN
Method: The inhibitory effect of the compounds of the present invention can be evaluated by several methods in vitro. One assay for measuring GAG-ECAM binding, exemplified herein below, detects the binding of L selectin/IgG to immobilized heparin. Another assay utilizes immobilized L-selectin, or L-selectin fused to protein domains other than IgG. The amount of bound L-selectin is determined by an ELISA assay using, for example, a monoclonal antibody raised against L-selectin, which is conjugated to horseradish peroxidase. […] The Dregg-55 antibody was also shown to inhibit L-selectin-dependent adhesion in vitro, neutrophil accumulation in vitro and inflammation in vivo (Co M. S. et al, Immunotechnology 493: 253-266, 1999).
An in vitro assay was used to assess the ability of test compounds according to formula I to inhibit the interactions of L-selectin with HS-GAGs. The assay was suitable for determining the concentration required for 50% inhibition (IC-50) for each specific compound. In the assay, the GAG used was heparin. Thus, porcine intestinal mucosa heparin conjugated to Bovine Serum Albumin (Heparin-BSA; Sigma Cat. No. H0403) at […] in Phosphate Buffered Saline (PBS; pH 6.5) was added to a 96 well polystyrene ELISA plate (NUNC Cat. No. 442404; 0.1 ml per well) and incubated Over Night (ON) at 4° C. Following the incubation, the plate was washed thoroughly, by immersion, with de-ionized water and PBS (pH 6.5). The ELISA plate was then blocked with BSA (ICN Cat. No.160069, 3%, 200 μl per well) for 1 hour at Room Temperature (RT). Following blocking, the plate was washed with de-ionized water, and then with PBS (pH 6.5) containing Tween 20 (Sigma Cat. No. P-1379, 0.05%). Compounds were synthesized or purchased from ChemDiv Labs (San Diego, Calif.), dissolved in DMSO, diluted in PBS and added to the wells at various concentrations in the range of 0.01 to 300 μM. Recombinant Human L-Selectin/IgG (Research and Development Systems Cat. No.728-LS) dissolved in PBS supplemented with BSA (0.1%) and calcium chloride (1 mM) was added to the ELISA plate (100 μl per well) and incubated for 60 minutes at RT with shaking. Following incubation, the plate was washed with de-ionized water and three times with PBS (pH 6.5) containing Tween 20. Anti-Human IgG Peroxidase Conjugate (1:5000; Sigma Product No. A8667) diluted in PBS supplemented with BSA (0.1%) and calcium chloride (1 mM) was added to the ELISA plate (100 μl per well) and incubated for 30 minutes at RT with shaking. The plate was then washed with de-ionized water and three times with PBS (pH 6.5) containing Tween 20. The peroxidase substrate cromogen, TMB (Dako Cat. No. S1599) was added (100 μl per well) to the ELISA plate and incubated at room temperature. After 15 minutes ELISA Stop Solution (hydrochloric acid 1N, sulfuric acid 3N) was added (200 μl per well) to stop the peroxidase catalyzed colorimetric reaction. The Optical Density (OD) of the samples was measured at 450 nm using an ELISA plate reader (Dynatech MR5000). Data were analyzed with Graphpad Prism software and IC-50 values were established. The P-selectin assay was carried out in a similar fashion, except that Recombinant Human P-Selectin/IgG (Research and Development Systems Cat.No.137-PS) was used.

[11] = system: RPMI-8226, MOLT-4, CCR-CEM, K562, SR; experiment: Leukemia cell lines (SRB): cell death; type: cell-based; details: 48 hours
Method: as §2

[12] = system: Mice; experiment: TNBS induced colitis (Inflammatory Bowel Disease model); type: in vivo, mouse
Method: Control mice (12 per group) were injected intraperitoneally (IP) with Test Compound (TC) Vehicle (Tween 80, 5%, 200 μl). […] The control and experimental mice were injected once per day for 7 successive days. […] 11 in the same experimental model. The compound was administered once a day for 7 days in a suspension with 0.5% methylcellulose per os. There were 12 mice per group and the control mice received 0.5% methylcellulose only. Compound no.

[13] = system: Lewis rats; experiment: Experimental Autoimmune Encephalomyelitis (MBP p87-99); type: in vivo, rat; details: intra-peritoneal once daily for 3 days, 10 and 35 mg/kg
Source text: In autoimmune conditions, T cells reactive to self-antigens escape elimination in the thymus and are activated in the periphery, where they can provoke damage in specific organs. EAE, a model of autoimmune disease that is induced in Lewis rats, bears many similarities to the human disease Multiple Sclerosis (MS). T cells found in brain lesions of MS patients have TCR junctional rearrangements that are identical to T cells found in the spinal cords of Lewis rats immunized with a peptide of myelin basic protein MBP p87-99. In addition, a major T and B cell response in MS patients is directed to MBP p87-99.
EAE is induced in rats by immunization with MBP p87-99. The inhibitor Compounds are administered once daily by intra-peritoneal injection for 3 consecutive days starting 1 day before the appearance of EAE symptoms (day 12 after EAE induction). The degree of clinical disease is scored as follows: 0=no signs; 1=loss of tail tonicity; 2=paralysis of hind limbs; 3=paralysis of all four limbs 4=quadriplegic animal in a moribund state.

[14] = system: immobilized heparin / L-selectin/IgG; experiment: Assay 1: direct interaction with heparin, pre-incubation versus co-incubation with L-selectin; type: binding; details: compound 0.1-200 μM, 90 min, washed before L-selectin/IgG
Method: Inhibitor Compounds at final concentration 0.1-200 μM were incubated in the ELISA plate for 90 min, and then washed with incubation buffer. After washing, L-selectin/IgG was added to the wells pre-incubated with compounds. At the same time, in separate control wells, L-selectin was co-incubated with inhibitor Compounds for 90 min. Following the incubation, L-selectin bound to the plate was quantified by antibody conjugated to Horse Radish Peroxidase and OD measurement as performed as described in Example 5.

[15] = system: BALB/c mice; experiment: Thioglycollate-induced leukocyte and neutrophil infiltration into mouse peritoneum; type: in vivo; details: intraperitoneal, 1 hour before thioglycollate; 3 hours
Method: The ability of compounds of the present invention to reduce leukocyte migration to sites of acute inflammation was evaluated in BALB/c mice using a thioglycolate-induced model of peritonitis. In this animal model, interactions of L- and P-selectin with HS-GAGs have been implicated in neutrophil infiltration (Nelson, R. M., 82:3253-3258, 1993; Xie, X. et al., J. Biol. Chem., 275:34818-34825, 2000).
BALB/c mice (6 weeks old, ˜20 g in weight, 15 mice/group) received intraperitoneal injection of an inhibitor compound in 0.2 ml DMSO/Tween/sterile saline 1 hour before administration of thioglycollate (Sigma). Control groups received vehicle and sham controls received no thioglycollate. Mice were injected intraperitoneally with 1 ml of 3% thioglycollate broth (Xie, X. et al., J. Biol. Chem., 275, 34818-34825, 2000). Mice were sacrificed after 3 hours, and the peritoneal cavities were ravaged with […] of ice-cold saline containing 2 mM EDTA to prevent clotting. After red blood cell lysis, leukocytes were counted in a hemocytometer. Neutrophils were counted after staining with Türck. Data was expressed as mean±SEM, and statistical analysis was performed by Student t test. A value of P<0.05 was taken to denote statistical significance.

SMILES	inhibition at 25 µM [1] [%]	% rolling [1] [%]	inhibition at 0.1 µM [2] [%]	inhibition at 0.1 µM [3] [%]	inhibition at 0.1 µM [4] [%]	growth inhibited to [5] [%]	growth inhibited to [6] [%]	growth inhibited to [7] [%]	growth inhibited to [8] [%]	growth inhibited to [9] [%]	IC50 [10] [µM]	cell death [11]	colonic damage (score 0 to 10), in words ([12]; IP once per day for 7 days, 10 and 35 mg/kg)	colonic damage (score 0 to 10), in words ([12]; per os once a day for 7 days, 3, 50 and 100 mg/kg)	clinical signs of EAE (in words) [13]	level of inhibition of L-selectin binding to heparin, pre-incubation versus co-incubation [14]	leukocyte migration into the peritoneal cavity (in words) [15]
CC(C)N1CCc2c(sc(NC(=O)c3ccc(S(=O)(=O)N4CCc5ccccc5C4)cc3)c2C(N)=O)C1 [Compound 1, 2-[[(4-(3,4-dihydro-2(1H)-isoquinolinyl)sulfonyl]benzoyl]amino]-6-(1-methylethyl)-4,5,6,7-tetrahydrothieno[2,3-c]pyridine-3-carboxamide]	90	30	99	99	100	100	100	100	100	93	13	less than 15%					
CCN1CCc2c(sc(NC(=O)c3ccc(S(=O)(=O)N(CC)CC)cc3)c2-c2nc3ccccc3s2)C1 [Compound 11, 2-[[4-[(diethylamino)sulfonyl]benzoyl]amino]-3-(benzothiazol-2-yl)-6-ethyl-4,5,6,7-tetrahydrothieno[2,3-c]pyridine]	90	<10									0.35		significantly inhibited	significantly inhibited	significantly inhibited	same level of inhibition	inhibited efficiently
CC1(C)Cc2c(sc(NC(=O)c3ccc(S(=O)(=O)N4CCCc5ccccc54)cc3)c2C(N)=O)C(C)(C)N1 [Compound 25]	70	<10									12						
